Results: ChEMBL document CHEMBL5303573, “Mapping human microbiome drug metabolism by gut bacteria and their genes” (Nature, 2019)

How the values were obtained:
[1] = The drug is tested on Bacteroides dorei strain: DSM17855 for biotransformation. The drug concentrations were measured before and after a 12-h incubation by liquid-chromatography-coupled mass spectrometry (LC–MS); conditions: phocaeicola dorei, 2 µM
[2] = The drug is tested on Bacteroides fragilis strain: HMW610 for biotransformation. The drug concentrations were measured before and after a 12-h incubation by liquid-chromatography-coupled mass spectrometry (LC–MS); conditions: 2 µM
[3] = The drug is tested on Bacteroides fragilis strain: ATCC43859 for biotransformation. The drug concentrations were measured before and after a 12-h incubation by liquid-chromatography-coupled mass spectrometry (LC–MS); conditions: 2 µM
[4] = The drug is tested on Clostridium symbiosum strain: ATCC14940 for biotransformation. The drug concentrations were measured before and after a 12-h incubation by liquid-chromatography-coupled mass spectrometry (LC–MS); conditions: 2 µM
[5] = roseburia intestinalis, 12 h, 2 µM
Description: The drug is tested on Roseburia intestinalis strain: L1-82 for biotransformation. The drug concentrations were measured before and after a 12-h incubation by liquid-chromatography-coupled mass spectrometry (LC–MS)

[6] = bifidobacterium adolescentis, 12 h, 2 µM
Description: The drug is tested on Bifidobacterium adolescentis strain: ATCC 15703 for biotransformation. The drug concentrations were measured before and after a 12-h incubation by liquid-chromatography-coupled mass spectrometry (LC–MS)

[7] = The drug is tested on Bacteroides vulgatus strain: ATCC8482 for biotransformation. The drug concentrations were measured before and after a 12-h incubation by liquid-chromatography-coupled mass spectrometry (LC–MS); conditions: phocaeicola vulgatus, 2 µM
[8] = The drug is tested on Ruminococcus torques strain: ATCC27756 for biotransformation. The drug concentrations were measured before and after a 12-h incubation by liquid-chromatography-coupled mass spectrometry (LC–MS); type: ADME; parameters: dose 2 uM, timepoint 0 vs 12 hours; conditions: 2 µM
[9] = The drug is tested on Bacteroides finegoldii strain: DSM17565 for biotransformation. The drug concentrations were measured before and after a 12-h incubation by liquid-chromatography-coupled mass spectrometry (LC–MS); conditions: 2 µM
[10] = The drug is tested on Providencia rettgeri strain: DSM1131 for biotransformation. The drug concentrations were measured before and after a 12-h incubation by liquid-chromatography-coupled mass spectrometry (LC–MS); type: ADME; parameters: dose 2 uM, timepoint 0 vs 12 hours; conditions: 2 µM
[11] = bacteroides eggerthii, 12 h, 2 µM
Description: The drug is tested on Bacteroides eggerthii strain: DSM20697 for biotransformation. The drug concentrations were measured before and after a 12-h incubation by liquid-chromatography-coupled mass spectrometry (LC–MS)

[12] = bacteroides stercoris, 12 h, 2 µM
Description: The drug is tested on Bacteroides stercoris strain: ATCC43183 for biotransformation. The drug concentrations were measured before and after a 12-h incubation by liquid-chromatography-coupled mass spectrometry (LC–MS)

[13] = akkermansia muciniphila, 12 h, 2 µM
Description: The drug is tested on Akkermansia muciniphila strain: ATCC BAA-835 for biotransformation. The drug concentrations were measured before and after a 12-h incubation by liquid-chromatography-coupled mass spectrometry (LC–MS)

[14] = The drug is tested on Bacteroides uniformis strain: ATCC8492 for biotransformation. The drug concentrations were measured before and after a 12-h incubation by liquid-chromatography-coupled mass spectrometry (LC–MS); conditions: 2 µM
[15] = bacteroides intestinalis, 12 h, 2 µM
Description: The drug is tested on Bacteroides intestinalis strain: DSM17393 for biotransformation. The drug concentrations were measured before and after a 12-h incubation by liquid-chromatography-coupled mass spectrometry (LC–MS)

[16] = The drug is tested on Bifidobacterium longum subsp. Infantis strain: CCUG52486 for biotransformation. The drug concentrations were measured before and after a 12-h incubation by liquid-chromatography-coupled mass spectrometry (LC–MS); conditions: 2 µM
[17] = The drug is tested on Ruminococcus lactaris strain: ATCC29176 for biotransformation. The drug concentrations were measured before and after a 12-h incubation by liquid-chromatography-coupled mass spectrometry (LC–MS); conditions: 2 µM
[18] = bacteroides thetaiotaomicron, 12 h, 2 µM
Description: The drug is tested on Bacteroides thetaiotaomicron strain: 7330 for biotransformation. The drug concentrations were measured before and after a 12-h incubation by liquid-chromatography-coupled mass spectrometry (LC–MS)

[19] = The drug is tested on Bifidobacterium ruminantium strain: fecal isolate for biotransformation. The drug concentrations were measured before and after a 12-h incubation by liquid-chromatography-coupled mass spectrometry (LC–MS); conditions: 2 µM
[20] = The drug is tested on Bacteroides cellulosilyticus strain: DSM14838 for biotransformation. The drug concentrations were measured before and after a 12-h incubation by liquid-chromatography-coupled mass spectrometry (LC–MS); conditions: 2 µM

## CC(CN(C)C)CN1c2ccccc2CCc2ccccc21.O=C(O)/C=C\C(=O)O (stereo not drawn) [TRIMIPRAMINE MALEATE]
[1]
  Bacterial Biotransformation: Compound NOT metabolized
[2]
  Bacterial Biotransformation: Compound NOT metabolized
[3]
  Bacterial Biotransformation: Compound NOT metabolized
[4]
  Bacterial Biotransformation: Compound NOT metabolized
[5]
  Bacterial Biotransformation: Compound NOT metabolized
[6]
  Bacterial Biotransformation: Compound NOT metabolized
[7]
  Bacterial Biotransformation: Compound NOT metabolized
[8]
  Bacterial Biotransformation: Compound NOT metabolized
[9]
  Bacterial Biotransformation: Compound NOT metabolized
[10]
  Bacterial Biotransformation: Compound NOT metabolized
[11]
  Bacterial Biotransformation: Compound NOT metabolized
[12]
  Bacterial Biotransformation: Compound NOT metabolized
[13]
  Bacterial Biotransformation: Compound NOT metabolized
[14]
  Bacterial Biotransformation: Compound NOT metabolized
[15]
  Bacterial Biotransformation: Compound NOT metabolized
[16]
  Bacterial Biotransformation: Compound NOT metabolized
[17]
  Bacterial Biotransformation: Compound NOT metabolized
[18]
  Bacterial Biotransformation: Compound NOT metabolized
[19]
  Bacterial Biotransformation: Compound NOT metabolized

## COc1ccc(C(CN(C)C)C2(O)CCCCC2)cc1 (stereo not drawn) [VENLAFAXINE]
[1]
  Bacterial Biotransformation: Compound NOT metabolized
[2]
  Bacterial Biotransformation: Compound NOT metabolized
[3]
  Bacterial Biotransformation: Compound NOT metabolized
[4]
  Bacterial Biotransformation: Compound NOT metabolized
[5]
  Bacterial Biotransformation: Compound NOT metabolized
[6]
  Bacterial Biotransformation: Compound NOT metabolized
[7]
  Bacterial Biotransformation: Compound NOT metabolized
[8]
  Bacterial Biotransformation: Compound NOT metabolized
[9]
  Bacterial Biotransformation: Compound NOT metabolized
[10]
  Bacterial Biotransformation: Compound NOT metabolized
[11]
  Bacterial Biotransformation: Compound NOT metabolized
[12]
  Bacterial Biotransformation: Compound NOT metabolized
[13]
  Bacterial Biotransformation: Compound NOT metabolized
[14]
  Bacterial Biotransformation: Compound NOT metabolized
[15]
  Bacterial Biotransformation: Compound NOT metabolized
[16]
  Bacterial Biotransformation: Compound NOT metabolized
[17]
  Bacterial Biotransformation: Compound NOT metabolized
[18]
  Bacterial Biotransformation: Compound NOT metabolized
[19]
  Bacterial Biotransformation: Compound NOT metabolized

## Br.CN1CCC[C@@H]1Cc1c[nH]c2ccc(CCS(=O)(=O)c3ccccc3)cc12 [ELETRIPTAN HYDROBROMIDE]
[1]
  Bacterial Biotransformation: Compound NOT metabolized
[2]
  Bacterial Biotransformation: Compound NOT metabolized
[3]
  Bacterial Biotransformation: Compound NOT metabolized
[4]
  Bacterial Biotransformation: Compound NOT metabolized
[5]
  Bacterial Biotransformation: Compound NOT metabolized
[6]
  Bacterial Biotransformation: Compound NOT metabolized
[7]
  Bacterial Biotransformation: Compound NOT metabolized
[8]
  Bacterial Biotransformation: Compound NOT metabolized
[9]
  Bacterial Biotransformation: Compound NOT metabolized
[10]
  Bacterial Biotransformation: Compound NOT metabolized
[11]
  Bacterial Biotransformation: Compound NOT metabolized
[12]
  Bacterial Biotransformation: Compound NOT metabolized
[13]
  Bacterial Biotransformation: Compound NOT metabolized
[14]
  Bacterial Biotransformation: Compound NOT metabolized
[15]
  Bacterial Biotransformation: Compound NOT metabolized
[16]
  Bacterial Biotransformation: Compound NOT metabolized
[17]
  Bacterial Biotransformation: Compound NOT metabolized
[18]
  Bacterial Biotransformation: Compound NOT metabolized
[19]
  Bacterial Biotransformation: Compound NOT metabolized

## O=P(O)(O)O.c1ccc(CN(CC2=NCCN2)c2ccccc2)cc1 [ANTAZOLINE PHOSPHATE]
[1]
  Bacterial Biotransformation: Compound NOT metabolized
[2]
  Bacterial Biotransformation: Compound NOT metabolized
[3]
  Bacterial Biotransformation: Compound NOT metabolized
[4]
  Bacterial Biotransformation: Compound NOT metabolized
[5]
  Bacterial Biotransformation: Compound NOT metabolized
[6]
  Bacterial Biotransformation: Compound NOT metabolized
[7]
  Bacterial Biotransformation: Compound NOT metabolized
[8]
  Bacterial Biotransformation: Compound NOT metabolized
[9]
  Bacterial Biotransformation: Compound NOT metabolized
[10]
  Bacterial Biotransformation: Compound NOT metabolized
[11]
  Bacterial Biotransformation: Compound NOT metabolized
[12]
  Bacterial Biotransformation: Compound NOT metabolized
[13]
  Bacterial Biotransformation: Compound NOT metabolized
[14]
  Bacterial Biotransformation: Compound NOT metabolized
[15]
  Bacterial Biotransformation: Compound NOT metabolized
[16]
  Bacterial Biotransformation: Compound NOT metabolized
[17]
  Bacterial Biotransformation: Compound NOT metabolized
[19]
  Bacterial Biotransformation: Compound NOT metabolized

## CC(O)(CS(=O)(=O)c1ccc(F)cc1)C(=O)Nc1ccc(C#N)c(C(F)(F)F)c1 (stereo not drawn) [BICALUTAMIDE]
[2]
  Bacterial Biotransformation: Compound metabolized
[4]
  Bacterial Biotransformation: Compound NOT metabolized
[5]
  Bacterial Biotransformation: Compound NOT metabolized
[20]
  Bacterial Biotransformation: Compound NOT metabolized
[6]
  Bacterial Biotransformation: Compound NOT metabolized
[8]
  Bacterial Biotransformation: Compound NOT metabolized
[9]
  Bacterial Biotransformation: Compound NOT metabolized
[11]
  Bacterial Biotransformation: Compound NOT metabolized
[12]
  Bacterial Biotransformation: Compound NOT metabolized
[13]
  Bacterial Biotransformation: Compound NOT metabolized
[14]
  Bacterial Biotransformation: Compound NOT metabolized
[15]
  Bacterial Biotransformation: Compound NOT metabolized
[16]
  Bacterial Biotransformation: Compound NOT metabolized
[17]
  Bacterial Biotransformation: Compound NOT metabolized
[18]
  Bacterial Biotransformation: Compound NOT metabolized

## O=C([O-])C[C@H](O)C[C@H](O)/C=C/c1c(C2CC2)nc2ccccc2c1-c1ccc(F)cc1.O=C([O-])C[C@H](O)C[C@H](O)/C=C/c1c(C2CC2)nc2ccccc2c1-c1ccc(F)cc1.[Ca+2] [PITAVASTATIN CALCIUM]
[1]
  Bacterial Biotransformation: Compound NOT metabolized
[2]
  Bacterial Biotransformation: Compound NOT metabolized
[3]
  Bacterial Biotransformation: Compound NOT metabolized
[4]
  Bacterial Biotransformation: Compound NOT metabolized
[6]
  Bacterial Biotransformation: Compound NOT metabolized
[7]
  Bacterial Biotransformation: Compound NOT metabolized
[8]
  Bacterial Biotransformation: Compound NOT metabolized
[10]
  Bacterial Biotransformation: Compound NOT metabolized
[11]
  Bacterial Biotransformation: Compound NOT metabolized
[12]
  Bacterial Biotransformation: Compound NOT metabolized
[13]
  Bacterial Biotransformation: Compound NOT metabolized
[14]
  Bacterial Biotransformation: Compound NOT metabolized
[15]
  Bacterial Biotransformation: Compound NOT metabolized
[16]
  Bacterial Biotransformation: Compound NOT metabolized
[17]
  Bacterial Biotransformation: Compound NOT metabolized
[18]
  Bacterial Biotransformation: Compound NOT metabolized
[19]
  Bacterial Biotransformation: Compound NOT metabolized

## CCN(C(C)=O)c1cccc(-c2ccnc3c(C#N)cnn23)c1 [ZALEPLON]
[1]
  Bacterial Biotransformation: Compound metabolized
[2]
  Bacterial Biotransformation: Compound metabolized
[3]
  Bacterial Biotransformation: Compound metabolized
[4]
  Bacterial Biotransformation: Compound NOT metabolized
[7]
  Bacterial Biotransformation: Compound metabolized
[8]
  Bacterial Biotransformation: Compound NOT metabolized
[10]
  Bacterial Biotransformation: Compound NOT metabolized
[11]
  Bacterial Biotransformation: Compound NOT metabolized
[12]
  Bacterial Biotransformation: Compound NOT metabolized
[13]
  Bacterial Biotransformation: Compound NOT metabolized
[14]
  Bacterial Biotransformation: Compound metabolized
[15]
  Bacterial Biotransformation: Compound NOT metabolized
[17]
  Bacterial Biotransformation: Compound NOT metabolized
[19]
  Bacterial Biotransformation: Compound NOT metabolized

## O=C(NCc1ccccc1)OCCO [BURAMATE]
[1]
  Bacterial Biotransformation: Compound NOT metabolized
[2]
  Bacterial Biotransformation: Compound NOT metabolized
[3]
  Bacterial Biotransformation: Compound NOT metabolized
[4]
  Bacterial Biotransformation: Compound NOT metabolized
[5]
  Bacterial Biotransformation: Compound NOT metabolized
[6]
  Bacterial Biotransformation: Compound NOT metabolized
[7]
  Bacterial Biotransformation: Compound NOT metabolized
[8]
  Bacterial Biotransformation: Compound NOT metabolized
[9]
  Bacterial Biotransformation: Compound NOT metabolized
[10]
  Bacterial Biotransformation: Compound NOT metabolized
[11]
  Bacterial Biotransformation: Compound NOT metabolized
[12]
  Bacterial Biotransformation: Compound NOT metabolized
[13]
  Bacterial Biotransformation: Compound NOT metabolized
[14]
  Bacterial Biotransformation: Compound NOT metabolized
[15]
  Bacterial Biotransformation: Compound NOT metabolized
[16]
  Bacterial Biotransformation: Compound NOT metabolized
[17]
  Bacterial Biotransformation: Compound NOT metabolized
[18]
  Bacterial Biotransformation: Compound NOT metabolized
[19]
  Bacterial Biotransformation: Compound NOT metabolized

## O=c1n(CCCN2CCN(c3cccc(Cl)c3)CC2)nc2ccccn12 [TRAZODONE]
[1]
  Bacterial Biotransformation: Compound NOT metabolized
[2]
  Bacterial Biotransformation: Compound NOT metabolized
[3]
  Bacterial Biotransformation: Compound NOT metabolized
[4]
  Bacterial Biotransformation: Compound NOT metabolized
[5]
  Bacterial Biotransformation: Compound NOT metabolized
[6]
  Bacterial Biotransformation: Compound NOT metabolized
[7]
  Bacterial Biotransformation: Compound NOT metabolized
[8]
  Bacterial Biotransformation: Compound NOT metabolized
[9]
  Bacterial Biotransformation: Compound NOT metabolized
[10]
  Bacterial Biotransformation: Compound NOT metabolized
[11]
  Bacterial Biotransformation: Compound NOT metabolized
[12]
  Bacterial Biotransformation: Compound NOT metabolized
[13]
  Bacterial Biotransformation: Compound NOT metabolized
[15]
  Bacterial Biotransformation: Compound NOT metabolized
[16]
  Bacterial Biotransformation: Compound NOT metabolized
[17]
  Bacterial Biotransformation: Compound NOT metabolized
[18]
  Bacterial Biotransformation: Compound NOT metabolized
[19]
  Bacterial Biotransformation: Compound NOT metabolized
